# Test results as given in paper PMC8424689 (ACS infectious diseases, 2021).
# Biological target: SARS-CoV-2 main protease (M^pro) (Severe acute respiratory syndrome coronavirus 2, UniProt P0DTD1)
Substance,Fold change = (kcat/KM) nsp8/9 analog /(kcat/KM) nsp8/9,Km [µM],kcat [S^−1],kcat/KM (catalytic efficiency),"fold difference in kcat/KM, nsp4/5 versus nsp8/9 [fold]"
RVVKLQ/ANELMP [nsp8/9 N1′A],2.9,22 ± 3,0.022 ± 0.001,1.0 ± 0.1 × 10^3 M^−1 s^−1,–
RVVKLQ/NAELMP [nsp8/9 N2′A],2.1,46 ± 5,0.034 ± 0.002,7.5 ±0.8 × 10^2 M^−1 s^−1,–
RVVKLQ/NDELMP [nsp8/9 N2′D],0.4,19 ± 1,0.0029 ± 0.0001,1.6 ± 1.2 × 10^2 M^−1 s^−1,–
RVVKLQ/NNELMP [nsp8/9],1.0,36 ± 6,0.013 ± 0.001,3.6 ± 0.7 × 10^2 M^−1 s^−1,–
TSAVLQ/SGFRKM [nsp4/5],–,41 ± 9,0.52 ± 0.07,1.3 ± 0.3 × 10^4 M^−1 s^−1,36
